Assay results published in patent US12329766B2, “Compounds, methods, and treatments for abnormal signaling pathways for prenatal and postnatal development” (priority 2006, dated 2025).

Legend:
[1] = Example 4: men on androgen ablative therapy, male breast cancer; type: in vivo; settings: prior to and throughout androgen ablative therapy; compared to controls
Description: Men preparing to initiate androgen ablative therapy are initiated on a course of D-chiroinositol prior to and throughout the treatment with the androgen ablative therapeutic.

[2] = Example 7: fetal alcohol syndrome related defects in offspring of alcohol treated rats; type: in vivo; settings: given before and during the alcohol treatment; versus inositol free alcohol treated group
Method: Female rats are administered alcohol for 2 weeks and then mated. The alcohol administration continues through out pregnancy and the rate of fetal alcohol syndrome related defects in the offspring are noted. A second set of rats from the same strain are mated without having the alcohol treatment as a control and the rate of defects of the same type as noted in the first arm are noted. […] A third arm of the study includes rats that are administered D-chiroinositol or a phosphorylate thereof before and during the alcohol treatment and are otherwise treated in the same manner as in the alcohol treatment above.

curly tail model = settings: cited from earlier work
[3] = Example 2: females at risk of fetal malformations, treatment from before conception through first trimester; type: in vivo; settings: once daily from before conception through the end of the first trimester; relative to the untreated controls
Method: Females determined to be at risk of fetal malformations and who are seeking a further pregnancy are split into no treatment, folate treatment, D-chiroinositol treatment, and Folate+D-chiroinositol treatment arms. The respective regimens are administered once daily from before conception through the end of the first trimester. Relative to the untreated controls, the frequency of fetal malformations is reduced in each of the non-control arms.

[4] = test system: phosphatidyl inositol (PI3K) signaling pathway; test: Example 6: cultured curly tail mice embryos, PNP closure; settings: embryos cultured from E9.5 to E10.5, in vitro
Method: To determine whether the downstream targets of the phosphatidyl inositol (PI3K) signaling pathway could be effected by an inhibitor, we can use […] to inhibit the effect of inositol on neural tube closure. The curly tail mice embryos are cultured from E9.5 to E10.5, and the length of unclosed neural folds at the pnp are measured to indicate predisposition to spina bifida. Embryos which are exposed to the kinase inhibitor alone have enlarged PNP's, reflecting the in vivo development of spinal NTD's by 50%-60% of curly tail embryos.

[5] = test system: Colo357, BxPc3, or PancTuI tumors; design: reduction of metastasis / reduction of the number of liver metastases / reduction of volumes of recurrent tumors: concentration or dose not given beside the values; settings: cited from earlier work; for reduction of the number of liver metastases / reduction of volumes of recurrent tumors: mouse, in vivo
PDAC cells = settings: in vitro; cited from earlier work
amyloid β deposits = settings: in vivo; cited from earlier work
Shh signaling [6] = test: Example 5: curly tail mice embryos, spinal and genitourinary defects; type: in vivo; settings: D-chiroinositol vs. myoinositol
Method: These embryos are exposed to the present invention compound D-chiroinositol vs. myoinositol and internal examination is conducted.

PDK1 [7] = target: T1, PDK1 (Homo sapiens, UniProt O15530); settings: phosphorylation of the PDK tide peptide substrate by PDK1; cited from earlier work
T1 sequence (O15530 1-556): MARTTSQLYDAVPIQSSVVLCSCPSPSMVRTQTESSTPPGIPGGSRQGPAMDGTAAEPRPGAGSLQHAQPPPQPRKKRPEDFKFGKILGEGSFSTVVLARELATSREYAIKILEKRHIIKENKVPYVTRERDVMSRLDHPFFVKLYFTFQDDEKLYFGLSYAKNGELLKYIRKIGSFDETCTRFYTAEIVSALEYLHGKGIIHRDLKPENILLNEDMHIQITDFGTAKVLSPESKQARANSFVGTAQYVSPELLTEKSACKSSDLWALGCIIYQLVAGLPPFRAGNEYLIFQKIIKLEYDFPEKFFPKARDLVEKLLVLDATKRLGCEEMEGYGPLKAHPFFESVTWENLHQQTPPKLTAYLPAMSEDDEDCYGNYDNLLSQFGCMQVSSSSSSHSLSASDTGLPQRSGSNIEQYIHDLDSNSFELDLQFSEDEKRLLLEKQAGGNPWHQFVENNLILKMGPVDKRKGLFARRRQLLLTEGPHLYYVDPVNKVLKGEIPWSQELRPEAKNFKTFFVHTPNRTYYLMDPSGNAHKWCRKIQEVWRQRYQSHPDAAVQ

PKB = settings: increasing extracellular Ins(1,3,4,5,6)P5; cited from earlier work
[8] = China 1993 to 1995; 3.1 per 10,000 births for those not taking folic acid; cited from earlier work
[9] = taken before conception and during early pregnancy; cited from earlier work
hedgehog signaling = settings: cultured neonatal mouse ovaries; cited from earlier work
Shh signaling [10] = settings: explants from mice at 13.5 days of gestation, six to eight days in culture; cited from earlier work
MDA-MB 231 cells = settings: cited from earlier work
PDK1 [11] = target: T1, PDK1; settings: cited from earlier work
[12] = severe combined immunodeficient mice, orthotopic tumors

O[C@H]1[C@H](O)[C@H](O)[C@@H](O)[C@@H](O)[C@H]1O [D-chiroinositol, D-chiro-inositol]
frequency of male breast cancer [1]: substantially reduced | rate of fetal alcohol syndrome defects [2]: substantially less | frequency of spina bifida (curly tail model; curly tail model, compound alone): reduced frequency of spina bifida in this model to a greater extent than myo-inositol alone | frequency of fetal malformations [3]: reduced | PNP closure [4]: normalizes PNP closure

etanercept
reduction of the number of liver metastases [5]: 42% | reduction of volumes of recurrent tumors [5]: 51% | effect on proliferation and invasiveness of PDAC cells (PDAC cells): only marginally affected

O[C@H]1[C@H](O)[C@@H](O)[C@H](O)[C@@H](O)[C@H]1O [myo-inositol]
efficacy in Alzheimer's disease (amyloid β deposits, cognitive ability) (amyloid β deposits): not to be effective | incidence of neural tube defects (curly tail model; mouse models that are folate resistant): reduced the incidence of neural tube defects | severity of spinal and genitourinary defects in embryos (Shh signaling [6]): severe compared to those embryos treated with D-chiroinositol

O=P(O)(O)OC1[C@@H](OP(=O)(O)O)[C@H](OP(=O)(O)O)C(O)[C@H](OP(=O)(O)O)[C@H]1OP(=O)(O)O (stereo partly shown) [Ins(1,3,4,5,6)P5]
direct inhibition of PDK1 catalytic activity (PDK1 [7]): did not directly inhibit | PKB activation in cells (PKB): lowered PKB activation

Nc1nc(O)c2nc(CNc3ccc(C(=O)N[C@@H](CCC(=O)O)C(=O)O)cc3)cnc2n1 [folic acid]
rate of imperforate anus [8]: 1.6 per 10,000 births | frequency of fetal malformations [3]: reduced | reduction of the risk of the fetus developing a neural tube defect [9]: about 70%

CC1=C2C[C@H]3[C@@H](CC=C4C[C@@H](O)CC[C@@]43C)[C@@H]2CC[C@]12O[C@@H]1C[C@H](C)CN[C@H]1[C@H]2C [cyclopamine]
induced expression of hedgehog target genes Ptch1 and Gli1 (hedgehog signaling): inhibits this induced expression of target genes | morphogenesis of vibrissa follicles (Shh signaling [10]): striking inhibition of morphogenesis

infliximab: human-specific anti-TNF antibody
reduction of the number of liver metastases [5]: 69% | reduction of volumes of recurrent tumors [5]: 73% | reduction of metastasis [5, 12]: ~50% | reduction of tumor growth [5, 12]: about 30% | effect on proliferation and invasiveness of PDAC cells (PDAC cells): only marginally affected

O=P(O)(O)O[C@H]1[C@H](OP(=O)(O)O)[C@@H](OP(=O)(O)O)[C@H](OP(=O)(O)O)[C@@H](OP(=O)(O)O)[C@H]1OP(=O)(O)O [myoinositol hexaphosphate]
secretion of MMP-9 (MDA-MB 231 cells): significantly inhibits

OC1C(O)C(O)C(O)C(O)C1O (stereo not drawn) [epi-inositol]
efficacy in Alzheimer's disease (amyloid β deposits, cognitive ability) (amyloid β deposits): only worked at all when given before disease onset

O=P(O)(O)O[C@H]1[C@H](OP(=O)(O)O)[C@@H](OP(=O)(O)O)[C@H](OP(=O)(O)O)[C@@H](OP(=O)(O)O)[C@H]1OP(=O)(O)O [InsP6]
direct inhibition of PDK1 catalytic activity (PDK1 [7]): did not directly inhibit

O[C@H]1[C@H](O)[C@@H](O)[C@H](O)[C@@H](O)[C@@H]1O [scyllo-inositol]
efficacy in Alzheimer's disease (amyloid β deposits, cognitive ability) (amyloid β deposits): prevent the accumulation of amyloid β deposits and improved cognitive ability

O=P(O)(O)O[C@@H]1[C@H](O)[C@H](O)[C@@H](OP(=O)(O)O)[C@H](OP(=O)(O)O)[C@H]1O [Ins(1,4,5)P3]
binding to PDK1 (PDK1 [11]): could not be detected
